Results on nine compounds are retold here after PubChem BioAssay (NCI).

Values joined by “and” are separate entries in the source; they are usually repeats but may differ in a detail not shown here. Equal values may be shown once.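 Grown in 96-well plates, cells were treated for 48 hours with each compound at five concentrations. Insufficient inhibition: endpoint recorded as highest concentration tested. GI50 is the concentration that inhibits growth by half. TGI denotes the concentration required for complete inhibition of growth.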 A value given as a limit tells only on which side of the number the result lay.

What all share (experiment): DTP human tumour cell line panel, 48 h
In test [1] the test system is 786-0 renal.
The subject of test [2] is NCI-H460 lung.
The test system of test [3] is LOX IMVI melanoma.
The subject of test [4] is HCT-116 colon.
Test [5] relates to SNB-75 CNS.
In test [6] the test system is COLO 205 colon.
The subject of test [7] is HCC-2998 colon.
Test [8] concerns UACC-62 melanoma.
Test [9] deals with HOP-62 NSCLC.
The test system of test [10] is DU-145 prostate.

Usually GI50 stands for the concentration at which growth is held to half of that of the control. As a reminder, the TGI is the concentration at which net growth stops. The low end stands for greater sensitivity of the cells, the high end for lower sensitivity of the cells. As to `COC(=O)c1cc([N+](=O)[O-])cc([N+](=O)[O-])c1Cl`, the GI50 in test [1] is 1.79 µM; in test [2], 13.1 µM; in test [3], 1.75 µM; in test [4], 1.06 µM; in test [5], 1.93 µM; in test [6] it was 1.65 µM. Besides, the GI50 in test [7] is 14.4 µM; in [8], 1.55 µM; in test [9] it was 2.65 µM; in test [10], 2.3 µM. Besides, the TGI in [1] turned out to be 3.22 µM; in test [2] it was 39 µM; in test [3], 3.36 µM; in test [4], 2.63 µM; in test [5] it was 5.07 µM; in test [6] it was 3.1 µM. Moreover, the TGI in test [7] amounted to 28.3 µM; in [8] it was 3.1 µM; in [9] it was 8.09 µM; in [10], 6.6 µM.

With `COc1ccc(/C=N\Nc2nc(SCC(C)C)nc(-c3ccc(OC)cc3)c2C#N)cc1`, the GI50 is 1.86 µM in test [1]; 0.548 µM in [2]; 18.2 µM in [3]; 0.679 µM in [4]; 1.67 µM in [5]; 3.72 µM in [6]. The GI50 was 24.7 µM in [7], 25.2 µM in [8], 0.414 µM in [9] and 13.7 µM in [10]. The TGI came to 9.33 µM in test [1]; 11 µM in test [2]; 75.2 µM in [3]; 15.3 µM in test [4]; 8.06 µM in [5]; 23.4 µM in [6]. In addition, the TGI is 99.4 µM in test [7], above 100 µM in test [8], 10.8 µM in test [9] and above 100 µM in test [10].

As for `O=S(=O)(NCCCNc1cc(-c2cn(-c3ccccc3)nc2-c2cccc(O)c2)ccn1)c1ccc(F)cc1`, the GI50 is 2.35 µM in [1]; 3.64 µM in test [2]; 3 µM in [3]; 2.91 µM in test [4]; 3.47 µM in [5]; 1.96 µM in test [6]. Further, the GI50 is 2.2 µM in test [7], 2.92 µM in test [8], 4.98 µM in [9] and 4.12 µM in test [10]. In addition, the concentration for total growth inhibition (TGI) is 6.23 µM in test [1]; 13.9 µM in test [2]; 10.7 µM in test [3]; 11.7 µM in test [4]; 16 µM in [5]; 3.87 µM in test [6]. Further, the TGI amounted to 4.52 µM in test [7], 12 µM in test [8], 19.3 µM in test [9] and 36.7 µM in test [10].

As for `CC1CCN(CCOc2ccc(CNc3ccc4nc(CCC5CCCCC5)[nH]c4c3)cc2)CC1`, the GI50 was 1.43 µM in test [1]; 1.72 µM in test [2]; 1.67 µM in test [3]; 1.4 µM in test [4]; 1.59 µM in test [5]; 1.57 µM in [6]. For the same compound, the GI50 in [7] was 1.42 µM; in [8], 1.9 µM; in test [9], 1.68 µM; in [10] it was 2.52 µM. The TGI came out at 2.79 µM in test [1]; 3.34 µM in test [2]; 3.1 µM in test [3]; 2.72 µM in test [4]; 3.55 µM in test [5]; 3.08 µM in [6]. For the same compound, the TGI in test [7] stood at 2.85 µM; in test [8], 3.36 µM; in test [9], 3.21 µM; in [10] it was 6.9 µM.

For the compound `O=C1C(Sc2ccc3ccccc3c2)=C(Sc2ccc3ccccc3c2)C(=O)c2ccccc21`, the total growth inhibition concentration (TGI) was 25.3 µM in [1]; above 100 µM in test [2]; 47.8 µM in [3]; 20.2 µM in [4]; 28.7 µM in test [5]; 12.8 µM in test [6]. Also, the TGI in test [7] is 19.6 µM; in [8] it was 14.2 µM; in test [9], 27.8 µM; in test [10], 84.4 µM.

As for `COC1=C(OC)C(=O)C(CCCCCCCCCCO)=C(C)C1=O`, the GI50 in [1] is 9.61 µM; in test [2], 14.8 µM; in test [3], 0.964 µM; in test [4], 4.46 µM; in test [5], 12.1 µM; in test [6], 19.6 µM. In addition, the GI50 was 16.3 µM in test [7], 7.57 µM in test [8], 16 µM in test [9] and 7.77 µM in test [10]. The TGI amounted to 21.7 µM in [1]; 34.9 µM in test [2]; 9.72 µM in test [3]; 16.1 µM in test [4]; 28 µM in [5]; 34 µM in [6]. For the same compound, the TGI is 33.5 µM in test [7], 21.4 µM in [8], 29.5 µM in test [9] and 22.4 µM in [10].

On to `CC1(C)[C@H](O)[C@H](F)C[C@@]2(C)Oc3ccc(C(=O)Nc4ccc5c(c4)NC(=O)C54CCN(CCCCC#N)CC4)cc3C[C@H]12`, for which the GI50 in test [1] was 0.0267 µM; in [2] it was 0.0653 µM; in test [3], 0.0396 µM; in [4] it was 0.149 µM and 1.33 µM; in test [5], 0.00679 µM; in test [6], 1.24 µM and 1.14 µM. Further, the GI50 in test [7] was 6.76 µM and 2.71 µM; in test [8], 0.0308 µM; in test [9], 1.28 µM and 1.13 µM. The TGI in test [1] was 1.8 µM and 4.76 µM; in [2], 10.9 µM; in test [3], 2.82 µM and 2.17 µM; in test [4], 10.7 µM; in test [5], 6.38 µM and 2.2 µM; in test [6], 3.42 µM and 3.63 µM. Also, the TGI in test [7] is 15 µM; in [8] it was 1.13 µM and 1.12 µM; in test [9], 5.61 µM; in test [10] it was 17.3 µM.

For `Nc1nc(-c2ccc(Cl)cc2)nc2c1sc(=S)n2-c1ccccc1`, the GI50 in test [1] is 1.84 µM; in test [2] it was 3.31 µM; in test [3], 2.07 µM; in test [4] it was 2.94 µM; in test [5], 1.73 µM; in test [6] it was 7.44 µM. In addition, the GI50 in test [7] is 7.52 µM; in test [8] it was 4.32 µM; in test [9], 3.4 µM; in test [10] it was 4.36 µM. In addition, the TGI is 3.62 µM in test [1]; 10.2 µM in test [2]; 4.91 µM in [3]; 10.9 µM in test [4]; 3.72 µM in [5]; above 100 µM in [6]. Further, the TGI in test [7] was 50.2 µM; in [8], 22.6 µM; in [9], 11.7 µM; in test [10] it was 18.9 µM.

As for `COc1cc(-c2ncn(/C=C\c3nnco3)n2)cc(C(F)(F)F)c1`, the GI50 in [1] is 0.465 µM; in test [2], 0.0431 µM; in test [3], 0.0906 µM; in test [4] it was 0.153 µM; in test [5], 0.0863 µM; in test [6], 0.0675 µM. The GI50 is 0.215 µM in test [7], 0.354 µM in test [8], 0.403 µM in test [9] and 0.416 µM in [10]. Besides, the TGI is above 51.9 µM in test [1]; above 100 µM in test [2]; 2.02 µM in [3]; 13.5 µM in test [4]; 4.73 µM in test [5]; above 24.7 µM in test [6]. Also, the TGI was 4.5 µM in test [7], 13.8 µM in test [8], above 47 µM in test [9] and above 100 µM in test [10].
